In patent publication US11523995B2, “Compositions and methods for ablating niche cells in testis and other epithelial cells and methods relating thereto” (Duke University, priority 2017, dated 2022):

How the values were obtained:
enteric nerve plexus = details: GI tract treated in vivo; cited from earlier work
[1] = tested on: Sertoli cells from canine testis; experiment: Depletion of canine Sertoli cells in vitro (testis fragment culture); type: cell-based; details: cultured 3 days
Protocol: (§1) Fragments of the mouse testis were incubated with 0.02% BC for 10 min. After washing several times with PBS, tissues were placed atop 1.5% agarose blocks (214530; Difco), prepared and placed in 6 well tissue culture plates (353046; Falcon) with ˜500 μl of 10% FBS+DMEM (11995-065; Gibco) to reach halfway up the side of the block. After culture, tissues were washed in PBS and fixed for immunofluorescence. The dog testis tissues were incubated with 0.02% or 0.03% BC for 10 min and cultured with 10% KnockOut Serum Replacement (KSR) (Invitrogen; 10828-028)+DMEM (Yokonishi, T., et al. Methods in Molecular Biology 927: 479-488 (2013)). The culture incubator was supplied with 5% (vol/vol) carbon dioxide in air and maintained at 37° C.
Adult mouse testis and canine testis tissues were fixed in 4% (wt/vol) paraformaldehyde in PBS at 4° C. overnight and cryoembedded in OCT compound (Sakura Finetek). Samples were cut into 14-μm-thick cryosections. Incubation with primary antibodies was performed overnight at 4° C., followed by 2 washes, and incubation with secondary antibodies for 1 h at room temperature. Nuclei were counterstained with Hoechst 33342 dye. Samples were mounted on glass slides and imaged with a confocal laser microscope (Zeiss 780).
We used the same procedure as described for the mouse testis to test whether BC could eliminate Sertoli cells from canine testis. Six to 8 […] canine testis tissues were cut into fragments and incubated with 0.02% or 0.03% BC for 10 min (or PBS as a control), washed, and cultured for 3 days (FIG. 4). At the end of that time, the testis was fixed and stained for immunofluorescence analysis using antibodies against SOX9 and the germ cell marker, MVH (mouse vasa homolog). In control tissue, both Sertoli cells and germ cells were detected in seminiferous tubules. […] In control canine testis, GATA-4 positive PMCs and Leydig cells were detected between tubules.

Sertoli cells = experiment: Neonatal testis Sertoli cell selective depletion in vitro (testis tissue culture, immunofluorescence); type: cell-based, mouse; details: 0.02% BC 10 min, cultured 4 days
Protocol: as §1
For cultured neonatal mouse testes, whole-mount immunofluorescence analysis was performed. Samples were fixed overnight with 4% (wt/vol) paraformaldehyde in PBS at 4° C. After several washes in PBTx (PBS plus 1% Triton X-100), samples were incubated in blocking solution (1% PBTx plus 10% FBS and 3% BSA) for 1 h at room temperature. Primary antibodies were diluted in blocking solution and applied to samples for 2 days at 4° C. After several washes in 1% PBT, fluorescent secondary antibodies were applied for 2 days at 4° C.
We incubated a neonatal testis in 0.02% BC solution for 10 min (or PBS as a control), washed the testis several times with PBS and cultured for 4 days at the surface/air interface in wells atop an agarose block (FIG. 1). At the end of that time, the testis was fixed and stained for immunofluorescence analysis using an antibody against the Sertoli cell marker, SOX9 (Sry-box 9). […] Although the number of F4/80 positive macrophages was increased in the interstitium of drug treated testis, other cell types in the testis including GFRα1 (GDNF family receptor al) and E-CAD (Cadherin1)-positive SSCs, and 3βHSD (3β-hydroxysteroid dehydrogenase)-positive Leydig cells were spared.

epithelial cells = experiment: In vitro epithelial cell ablation in kidney, GI tract, liver and lung tissue culture; type: cell-based, mouse; details: 0.03% BC 10 min, cultured 4 days
Protocol: Fragments of the mouse kidney, GI tract, liver and lung were incubated with 0.03% BC for 10 min. After washing several times with PBS, tissues were placed atop 1.5% agarose blocks (214530; Difco), prepared and placed in 6 well tissue culture plates (353046; Falcon) with ˜500 μl of 10% KnockOut Serum Replacement (KSR) (Invitrogen; 10828-028)+DMEM (11995-065; Gibco) to reach halfway up the side of the block. After culture, tissues were washed in PBS and fixed for immunofluorescence. The culture incubator was supplied with 5% (vol/vol) carbon dioxide in air and maintained at 37° C.
We incubated a neonatal kidney, GI tract, liver and lung tissues in 0.03% BC solution for 10 min, washed the tissues several times with PBS and cultured for 4 days at the surface/air interface in wells atop an agarose block (FIG. 9). At the end of that time, the tissues were fixed and stained for immunofluorescence analysis using an antibody against E-CAD (Cadherin1), epithelial marker. […] Although epithelial cells were eliminated in drug treated tissues, LMN (laminin) positive basement membrane and stromal cells which is stained with PDGFRβ were maintained.

donor spermatogenesis = experiment: Testicular cell transplantation 7 days post BC treatment; type: in vivo, mouse; details: CAG-EGFP pup testicular cells transplanted 7 days post BC
Protocol: 10-15 μl of approximately 1×10^6/ml isolated Sertoli cells or 1×10^8/ml (testicular cells) were injected through the rete testis into the seminiferous tubules of a host mouse on day 4 or day 7 after ablation treatment. A glass needle was back-loaded with the cell suspension and 0.04% Trypan blue to track the efficiency of the injection.
To determine whether the host testes depleted for both Sertoli and germ cells could be used as a scaffold for engraftment of multiple cell types, we performed testicular cell transplantation 7 days post BC treatment (FIG. 7). Nineteen days after testicular cell transplantation from CAG-EGFP pups into a treated host testis, donor Sertoli cells and SSCs colonized. Donor SSCs proliferated with support from donor Sertoli cells, initiated meiosis, and progressed to the spermatocyte stage. EGFP positive leptotene and pachytene spermatocyte were detected. […] Most of these interstitial EGFP bright donor cells were Leydig cells, and some donor PMC colonization was also detected. […] Round spermatids and elongated spermatids generated from donor SSCs with support from donor Sertoli cells were detected in the host testis. In 9/13 testes, donor Sertoli cell and SSC colonization was observed, and full spermatogenesis was detected in 4 of these hosts.

SSCs = experiment: SSC kinetics after BC treatment in DND1-EGFP mouse; type: in vivo
Protocol: Host mice were anesthetized. A glass needle was back-loaded with the drug and 0.02% bromophenol blue to track the success of the injection and extent of delivery into the tissue. The mixture was injected into the rete-testis.
We used a DND1 (dead end homolog 1)-EGFP mouse to investigate SSC kinetics after BC treatment. In this transgenic mouse, all SSCs including undifferentiated SSCs and differentiating spermatogonia express EGFP. 0.02% BC (or PBS control) was injected into seminiferous tubules of adult testis. […] Although Sertoli cells and germ cells were lost in drug affected tubules, cord structure, Leydig cells, and PMCs were normal.

## benzalkonium chloride [BC]
Enteric nerve plexus
  removal of enteric nerve plexus: remove the mouse and rat enteric nerve plexus
[1]; 0.02% BC 10 min
  Sertoli cell depletion (SOX9): Sertoli cells were depleted, particularly from the peripheral regions of the tissue
[1]; 0.03% BC 10 min
  SSC survival in Sertoli-depleted seminiferous tubules: some SSCs survived
  Sertoli cell depletion (SOX9): all Sertoli cells were absent
  effect on PMCs, SSCs and Leydig cells: caused some PMC depletion, and reduced the number of SSCs and Leydig cells
Sertoli cells
  Sertoli cell elimination (SOX9 immunofluorescence): specifically eliminated Sertoli cells
  effect on other testis cell types (GFRα1 and E-CAD-positive SSCs, 3βHSD-positive Leydig cells): spared
  number of F4/80 positive macrophages in the interstitium: increased
Epithelial cells
  LMN positive basement membrane and PDGFRβ stromal cells: maintained
Epithelial cells; neonatal kidney, GI tract, liver and lung
  epithelial cell elimination (E-CAD immunofluorescence): specifically eliminated epithelial cells
Donor spermatogenesis
  hosts with full spermatogenesis (of the colonized testes): 4
  testes with donor Sertoli cell and SSC colonization: 9/13
SSCs; 0.02% BC into seminiferous tubules, three days after Sertoli cells were depleted (7 days post BC)
  SSC loss (DND1-EGFP): SSCs had also disappeared
SSCs; 0.02% BC, 7 days post treatment
  cord structure, Leydig cells and PMCs in drug affected tubules: normal
